In publication PMC11091863 (RSC Advances, 2024):

Tests used:
[1] = tested on: α-amylase; experiment: In vitro α-amylase inhibitory assay; settings: for IC50: read-out: The α-amylase activity: IC50 ± SD, DF = 100
[2] = tested on: α-glucosidase; experiment: In vitro α-glucosidase inhibitory assay; type: biochemical; settings: for α-Glucosidase activity: IC50 ± SD: DF = 100, five concentrations 10, 5, 1, 0.1, 0.01 μg mL^−1
[3] = biological target: T1, Human PPAR-γ (Peroxisome Proliferator-Activated Receptor Gamma) (Homo sapiens, UniProt P37231); experiment: In vitro PPAR-γ transactivation assay; type: biochemical; settings: for PPAR-γ Folds: folds compared to Pioglitazone (= 1)
T1 sequence (P37231 1-505): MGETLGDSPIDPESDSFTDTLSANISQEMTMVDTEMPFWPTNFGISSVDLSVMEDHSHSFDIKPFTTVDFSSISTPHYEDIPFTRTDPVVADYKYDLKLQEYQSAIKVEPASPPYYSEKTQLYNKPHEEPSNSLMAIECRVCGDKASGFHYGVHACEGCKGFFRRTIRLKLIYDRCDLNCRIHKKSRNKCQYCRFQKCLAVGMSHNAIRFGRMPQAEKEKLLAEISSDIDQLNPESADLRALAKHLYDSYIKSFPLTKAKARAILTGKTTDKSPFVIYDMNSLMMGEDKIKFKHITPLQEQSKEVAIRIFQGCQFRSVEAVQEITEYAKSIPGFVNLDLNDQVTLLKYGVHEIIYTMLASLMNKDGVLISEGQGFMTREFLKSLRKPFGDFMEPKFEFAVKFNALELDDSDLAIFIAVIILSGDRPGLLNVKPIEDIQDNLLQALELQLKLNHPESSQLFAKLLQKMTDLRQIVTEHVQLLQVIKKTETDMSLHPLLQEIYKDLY

| SMILES | The α-amylase activity: Inhibitory percentage at 100 μg mL^−1 [1] | α-Glucosidase activity: Inhibitory potential at 10 μg mL^−1 [2] | Increase of α-amylase inhibitory potency, fold ([1]; compound 2 relative to derivative 3) | IC50 [1] | IC50 [3] | PPAR-γ Folds [3] | α-Glucosidase activity: IC50 ± SD [2] |
| --- | --- | --- | --- | --- | --- | --- | --- |
| C[C@H]1O[C@H](O[C@H]2[C@H](O)[C@@H](O)[C@@H](O[C@H]3[C@H](O)[C@@H](O)C(O)O[C@@H]3CO)O[C@@H]2CO)[C@H](O)[C@@H](O)[C@@H]1N[C@H]1C=C(CO)[C@@H](O)[C@H](O)[C@H]1O (stereo partly drawn) [Acarbose, reference compound] | 96.5% | 90.1% |  |  |  |  |  |
| N#Cc1cc2cc(S(N)(=O)=O)ccc2oc1=N [Compound 2, 3-Cyano-2-imino-2H-chromene-6-sulfonamide] | 96.1% | 90.7% | ~8.31 fold | 1.76 ± 0.01 µM | 12.6 µM | ~1.55 | 0.548 ± 0.02 µg/mL |
| N#CC(C#N)=C(N)c1cc2cc(S(N)(=O)=O)ccc2oc1=N [Compound 3, 3-(1-Amino-2,2-dicyanovinyl)-2-imino-2H-chromene-6-sulfonamide] | 96% |  |  | 14.6 ± 0.16 µM |  |  |  |
| CC(=O)c1cc2cc(S(N)(=O)=O)ccc2oc1=O [Compound 4, 3-Acetyl-2-oxo-2H-chromene-6-sulfonamide] | 94.2% |  |  | 8.55 ± 0.31 µM |  |  |  |
| CCOC(=O)c1cc2cc(S(N)(=O)=O)ccc2oc1=O [Compound 5, Ethyl 2-oxo-6-sulfamoyl-2H-chromene-3-carboxylate] | 93.4% |  |  | 32.6 ± 0.33 µM |  |  |  |
| NS(=O)(=O)c1ccc2oc(=O)c(C(=O)Nc3ccc(F)cc3)cc2c1 [Compound 6, N-(4-fluorophenyl)-2-oxo-6-sulfamoyl-2H-chromene-3-carboxamide] | 95.4% |  |  | 2.11 ± 0.03 µM |  |  |  |
| NS(=O)(=O)c1ccc2oc(=O)c(C(=O)Nc3cccc(C(F)(F)F)c3)cc2c1 [Compound 7, 2-Oxo-6-sulfamoyl-N-(3-(trifluoromethyl)phenyl)-2H-chromene-3-carboxamide] | 96.2% |  |  | 4.39 ± 0.06 µM |  |  |  |
| NS(=O)(=O)c1ccc2oc(=O)c(C(=O)Nc3ccc(Cl)cc3)cc2c1 [Compound 8, N-(4-chlorophenyl)-2-oxo-6-sulfamoyl-2H-chromene-3-carboxamide] | 95.4% |  |  | 4.23 ± 0.06 µM |  |  |  |
| CCOC(=O)c1ccc(NC(=O)c2cc3cc(S(N)(=O)=O)ccc3oc2=O)cc1 [Compound 9, Ethyl 4-(2-oxo-6-sulfamoyl-2H-chromene-3-carboxamido)benzoate] | 96.6% | 83.8% |  | 1.08 ± 0.02 µM | 8.9 µM | ~1.32 | 2.44 ± 0.09 µg/mL |
